Assay results reported in US10231954B2, “Neurodegenerative therapies” (LYTIX BIOPHARMA AS, priority 2014, dated 2019).

Key:
TrkA = TrkA (Homo sapiens, UniProt P04629); assay: Kinase profiling TrkA; assay type: biochemical; conditions: 100 micromolar inhibitor concentration, 100 is no change
Excerpt: (§1) Any value less that 25 is considered to be highly significant inhibition.

PIM1 = PIM1 (Homo sapiens, UniProt P11309); assay: Kinase profiling PIM1; assay type: biochemical; conditions: 100 micromolar inhibitor concentration, 100 is no change
Chain of PIM1 (P11309 whole entry, species assumed): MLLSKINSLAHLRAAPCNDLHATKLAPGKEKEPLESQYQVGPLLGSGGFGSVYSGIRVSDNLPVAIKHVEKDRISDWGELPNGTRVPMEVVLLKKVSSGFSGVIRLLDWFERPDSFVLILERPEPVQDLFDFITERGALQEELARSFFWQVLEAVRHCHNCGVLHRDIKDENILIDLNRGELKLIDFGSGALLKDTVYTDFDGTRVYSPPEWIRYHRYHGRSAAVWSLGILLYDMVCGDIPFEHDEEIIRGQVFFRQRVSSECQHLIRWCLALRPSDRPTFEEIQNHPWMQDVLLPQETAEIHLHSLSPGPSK
Excerpt: as §1

NEK6 = NEK6 (Homo sapiens, UniProt Q9HC98); assay: Kinase profiling NEK6; assay type: biochemical; conditions: 100 micromolar inhibitor concentration, 100 is no change
Chain of NEK6 (Q9HC98 whole entry, species assumed): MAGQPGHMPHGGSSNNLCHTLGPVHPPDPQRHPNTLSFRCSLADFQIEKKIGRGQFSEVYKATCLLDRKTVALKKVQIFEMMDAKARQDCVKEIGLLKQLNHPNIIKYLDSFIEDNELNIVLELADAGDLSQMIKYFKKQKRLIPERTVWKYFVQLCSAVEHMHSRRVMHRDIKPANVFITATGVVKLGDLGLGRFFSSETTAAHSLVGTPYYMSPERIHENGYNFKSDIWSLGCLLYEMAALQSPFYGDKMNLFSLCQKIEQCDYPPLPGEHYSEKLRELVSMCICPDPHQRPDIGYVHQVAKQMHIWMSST
Excerpt: as §1

JNK2 = JNK2 (Homo sapiens, UniProt P45984); assay: Kinase profiling JNK2; assay type: biochemical; conditions: 100 micromolar inhibitor concentration, 100 is no change
Excerpt: as §1

HER4 = HER4 (Homo sapiens, UniProt Q15303); assay: Kinase profiling HER4; assay type: biochemical; conditions: 100 micromolar inhibitor concentration, 100 is no change
Excerpt: as §1

CAMK1 = CAMK1 (Homo sapiens, UniProt Q14012); assay: Kinase profiling CAMK1; assay type: biochemical; conditions: 100 micromolar inhibitor concentration, 100 is no change
Chain of CAMK1 (Q14012 whole entry, species assumed): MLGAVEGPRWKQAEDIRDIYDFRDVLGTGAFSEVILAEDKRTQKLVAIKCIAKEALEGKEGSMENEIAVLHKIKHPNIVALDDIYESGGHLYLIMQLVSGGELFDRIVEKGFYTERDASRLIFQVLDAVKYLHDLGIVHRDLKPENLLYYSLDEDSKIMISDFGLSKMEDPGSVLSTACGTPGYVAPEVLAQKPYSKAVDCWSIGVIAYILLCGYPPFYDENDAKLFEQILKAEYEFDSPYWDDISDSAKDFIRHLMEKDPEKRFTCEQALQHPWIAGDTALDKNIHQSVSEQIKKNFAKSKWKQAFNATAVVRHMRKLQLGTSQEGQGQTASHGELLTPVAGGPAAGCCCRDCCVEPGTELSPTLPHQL
Excerpt: as §1

TAK1 = biological target: T1, TAK1 (Homo sapiens, UniProt O43318); assay: Kinase profiling TAK1; assay type: biochemical; conditions: 100 micromolar inhibitor concentration, 100 is no change
T1 sequence (O43318 1-303 limits assumed): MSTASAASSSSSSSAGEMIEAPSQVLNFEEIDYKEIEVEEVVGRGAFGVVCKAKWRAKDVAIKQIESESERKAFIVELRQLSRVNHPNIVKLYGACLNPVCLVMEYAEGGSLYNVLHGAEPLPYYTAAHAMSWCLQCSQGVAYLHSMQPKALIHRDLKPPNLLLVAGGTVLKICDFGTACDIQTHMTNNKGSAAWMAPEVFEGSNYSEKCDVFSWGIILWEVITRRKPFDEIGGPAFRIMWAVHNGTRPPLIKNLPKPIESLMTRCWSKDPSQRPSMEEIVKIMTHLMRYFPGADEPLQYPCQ
T1 sequence (Q15750 437-504 partner limits assumed): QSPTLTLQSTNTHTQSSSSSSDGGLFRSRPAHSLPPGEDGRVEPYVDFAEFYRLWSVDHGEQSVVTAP
Excerpt: as §1

AMPK (hum) = assay: Kinase profiling AMPK (hum); assay type: biochemical, human; conditions: 100 micromolar inhibitor concentration; 100 is no change
Excerpt: as §1

PDK1 = biological target: T2, PDK1 (Homo sapiens, UniProt O15530); assay: Kinase profiling PDK1; assay type: biochemical; conditions: 100 micromolar inhibitor concentration, 100 is no change
T2 sequence (O15530 1-556): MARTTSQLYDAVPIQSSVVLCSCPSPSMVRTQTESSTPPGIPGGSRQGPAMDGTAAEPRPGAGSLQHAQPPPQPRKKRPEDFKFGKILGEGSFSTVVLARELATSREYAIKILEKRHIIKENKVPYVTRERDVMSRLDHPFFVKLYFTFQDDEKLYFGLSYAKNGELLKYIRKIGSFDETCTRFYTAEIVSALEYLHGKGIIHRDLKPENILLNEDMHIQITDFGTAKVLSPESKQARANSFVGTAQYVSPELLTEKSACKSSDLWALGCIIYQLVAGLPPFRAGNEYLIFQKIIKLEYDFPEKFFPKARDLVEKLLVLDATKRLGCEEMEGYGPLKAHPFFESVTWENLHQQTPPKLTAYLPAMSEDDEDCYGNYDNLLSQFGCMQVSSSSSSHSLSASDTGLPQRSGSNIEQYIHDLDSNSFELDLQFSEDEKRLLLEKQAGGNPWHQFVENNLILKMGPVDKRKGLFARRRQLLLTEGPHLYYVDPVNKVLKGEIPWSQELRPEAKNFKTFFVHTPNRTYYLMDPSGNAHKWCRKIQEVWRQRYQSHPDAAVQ
Excerpt: as §1

HIPK2 = HIPK2 (Homo sapiens, UniProt Q9H2X6); assay: Kinase profiling HIPK2; assay type: biochemical; conditions: 100 micromolar inhibitor concentration, 100 is no change
Chain of HIPK2 (Q9H2X6 whole entry, species assumed): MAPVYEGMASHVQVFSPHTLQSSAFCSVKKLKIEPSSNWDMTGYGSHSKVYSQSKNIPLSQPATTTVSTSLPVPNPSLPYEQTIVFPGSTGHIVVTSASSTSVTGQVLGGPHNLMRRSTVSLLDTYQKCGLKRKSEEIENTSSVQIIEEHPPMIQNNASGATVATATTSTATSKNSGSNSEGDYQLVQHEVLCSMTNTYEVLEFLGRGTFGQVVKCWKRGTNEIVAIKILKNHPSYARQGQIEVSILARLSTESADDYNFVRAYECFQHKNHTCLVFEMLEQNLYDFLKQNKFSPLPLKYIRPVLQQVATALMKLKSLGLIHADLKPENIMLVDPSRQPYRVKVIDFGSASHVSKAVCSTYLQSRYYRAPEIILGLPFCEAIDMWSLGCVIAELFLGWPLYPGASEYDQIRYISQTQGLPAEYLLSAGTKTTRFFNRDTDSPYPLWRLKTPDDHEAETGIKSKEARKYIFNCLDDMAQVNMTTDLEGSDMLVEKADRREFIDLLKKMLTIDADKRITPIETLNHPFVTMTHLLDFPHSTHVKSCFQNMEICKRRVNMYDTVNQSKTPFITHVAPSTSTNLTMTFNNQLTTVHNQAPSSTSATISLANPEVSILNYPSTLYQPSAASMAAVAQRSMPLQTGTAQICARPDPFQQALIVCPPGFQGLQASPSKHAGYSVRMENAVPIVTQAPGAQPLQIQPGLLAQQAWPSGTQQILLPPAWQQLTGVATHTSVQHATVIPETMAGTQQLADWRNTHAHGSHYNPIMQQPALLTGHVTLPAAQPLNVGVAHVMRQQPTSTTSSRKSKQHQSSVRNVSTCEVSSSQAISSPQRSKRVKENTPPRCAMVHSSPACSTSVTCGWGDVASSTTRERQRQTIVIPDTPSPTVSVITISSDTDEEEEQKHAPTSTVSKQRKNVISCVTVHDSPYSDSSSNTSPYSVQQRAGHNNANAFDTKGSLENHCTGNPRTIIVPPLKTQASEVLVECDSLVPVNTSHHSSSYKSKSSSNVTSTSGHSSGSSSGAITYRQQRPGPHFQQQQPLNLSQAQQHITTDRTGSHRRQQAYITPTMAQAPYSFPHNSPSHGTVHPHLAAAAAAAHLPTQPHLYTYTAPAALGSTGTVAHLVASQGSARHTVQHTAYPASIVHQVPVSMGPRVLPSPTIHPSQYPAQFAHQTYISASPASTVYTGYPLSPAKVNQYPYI
Excerpt: as §1

JAK2 = JAK2 (Homo sapiens, UniProt O60674); assay: Kinase profiling JAK2; assay type: biochemical; conditions: 100 micromolar inhibitor concentration, 100 is no change
Excerpt: as §1

JNK1 = JNK1 (Homo sapiens, UniProt P45983); assay: Kinase profiling JNK1; assay type: biochemical; conditions: 100 micromolar inhibitor concentration, 100 is no change
Chain of JNK1 (P45983 whole entry, species assumed): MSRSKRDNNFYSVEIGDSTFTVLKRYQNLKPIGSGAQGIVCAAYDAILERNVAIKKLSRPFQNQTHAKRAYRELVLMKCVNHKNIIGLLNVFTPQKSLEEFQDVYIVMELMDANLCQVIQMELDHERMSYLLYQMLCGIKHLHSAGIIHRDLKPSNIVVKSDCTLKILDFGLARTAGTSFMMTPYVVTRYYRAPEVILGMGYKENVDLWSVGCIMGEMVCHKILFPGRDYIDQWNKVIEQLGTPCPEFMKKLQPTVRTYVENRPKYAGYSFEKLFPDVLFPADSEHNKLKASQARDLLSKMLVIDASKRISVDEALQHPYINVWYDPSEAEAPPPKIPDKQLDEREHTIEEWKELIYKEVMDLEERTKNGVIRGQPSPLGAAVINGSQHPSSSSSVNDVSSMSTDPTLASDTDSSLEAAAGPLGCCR
Excerpt: as §1

MLK3 = MLK3 (Homo sapiens, UniProt Q16584); assay: Kinase profiling MLK3; assay type: biochemical; conditions: 100 micromolar inhibitor concentration, 100 is no change
Excerpt: as §1

SRPK1 = SRPK1 (Homo sapiens, UniProt Q96SB4); assay: Kinase profiling SRPK1; assay type: biochemical; conditions: 100 micromolar inhibitor concentration, 100 is no change
Chain of SRPK1 (Q96SB4 whole entry, species assumed): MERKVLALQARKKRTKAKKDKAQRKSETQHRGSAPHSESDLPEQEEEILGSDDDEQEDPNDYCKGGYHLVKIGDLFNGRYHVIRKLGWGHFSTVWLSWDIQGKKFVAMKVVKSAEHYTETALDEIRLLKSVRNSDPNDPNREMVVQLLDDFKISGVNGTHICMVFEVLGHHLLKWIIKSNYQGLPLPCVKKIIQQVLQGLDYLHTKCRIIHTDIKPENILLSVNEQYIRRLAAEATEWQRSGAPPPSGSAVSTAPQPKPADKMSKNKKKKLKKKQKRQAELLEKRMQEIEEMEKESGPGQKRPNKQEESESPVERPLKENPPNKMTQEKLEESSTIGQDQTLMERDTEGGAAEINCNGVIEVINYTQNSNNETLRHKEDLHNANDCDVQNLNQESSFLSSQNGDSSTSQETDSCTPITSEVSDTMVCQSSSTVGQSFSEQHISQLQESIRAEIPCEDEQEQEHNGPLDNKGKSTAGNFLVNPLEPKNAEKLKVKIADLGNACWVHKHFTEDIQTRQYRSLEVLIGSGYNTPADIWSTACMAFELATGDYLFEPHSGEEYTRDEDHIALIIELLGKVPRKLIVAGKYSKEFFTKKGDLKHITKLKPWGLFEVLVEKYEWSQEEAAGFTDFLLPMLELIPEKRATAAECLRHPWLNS
Excerpt: as §1

PKCγ = PKCγ (Homo sapiens, UniProt P05129); assay: Kinase profiling PKCγ; assay type: biochemical; conditions: 100 micromolar inhibitor concentration, 100 is no change
Excerpt: as §1

PKBa = PKBa (Homo sapiens, UniProt P31749); assay: Kinase profiling PKBa; assay type: biochemical; conditions: for residual kinase activity, PKBa: 100 micromolar inhibitor concentration, 100 is no change
Chain of PKBa (P31749 whole entry): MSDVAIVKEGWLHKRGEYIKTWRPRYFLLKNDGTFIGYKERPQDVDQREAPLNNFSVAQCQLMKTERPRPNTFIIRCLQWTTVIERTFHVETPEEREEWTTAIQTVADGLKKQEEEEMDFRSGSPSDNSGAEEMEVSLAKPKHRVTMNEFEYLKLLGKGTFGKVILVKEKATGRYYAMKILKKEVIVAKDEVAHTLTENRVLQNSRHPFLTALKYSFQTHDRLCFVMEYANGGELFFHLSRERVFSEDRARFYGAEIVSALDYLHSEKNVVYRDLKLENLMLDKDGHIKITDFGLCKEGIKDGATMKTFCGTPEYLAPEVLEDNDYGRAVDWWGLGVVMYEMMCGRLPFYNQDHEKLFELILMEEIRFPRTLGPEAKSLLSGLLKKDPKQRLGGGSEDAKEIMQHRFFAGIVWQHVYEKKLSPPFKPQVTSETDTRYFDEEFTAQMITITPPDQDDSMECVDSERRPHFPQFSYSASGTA
Excerpt: as §1

MKK6 = biological target: T3, MKK6 (Homo sapiens, UniProt P52564); assay: Kinase profiling MKK6; assay type: biochemical; conditions: 100 micromolar inhibitor concentration, 100 is no change
T3 sequence (P52564 1-334): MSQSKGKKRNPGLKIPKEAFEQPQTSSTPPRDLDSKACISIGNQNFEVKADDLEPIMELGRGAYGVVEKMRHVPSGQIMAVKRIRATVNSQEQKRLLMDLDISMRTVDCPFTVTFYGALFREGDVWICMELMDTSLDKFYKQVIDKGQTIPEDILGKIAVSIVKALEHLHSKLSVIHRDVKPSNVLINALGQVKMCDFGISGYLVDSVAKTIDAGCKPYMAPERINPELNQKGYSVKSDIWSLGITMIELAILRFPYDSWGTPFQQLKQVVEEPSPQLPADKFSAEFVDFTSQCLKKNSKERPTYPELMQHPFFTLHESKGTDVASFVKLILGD
Excerpt: as §1

MSK1 = MSK1 (Homo sapiens, UniProt O75582); assay: Kinase profiling MSK1; assay type: biochemical; conditions: 100 micromolar inhibitor concentration, 100 is no change
Excerpt: as §1

ERK2 = ERK2 (Homo sapiens, UniProt P28482); assay: Kinase profiling ERK2; assay type: biochemical; conditions: 100 micromolar inhibitor concentration, 100 is no change
Excerpt: as §1

p38d MAPK = biological target: T4, p38d MAPK (Homo sapiens, UniProt O15264); assay: Kinase profiling p38d MAPK; assay type: biochemical; conditions: 100 micromolar inhibitor concentration, 100 is no change
T4 sequence (O15264 1-365): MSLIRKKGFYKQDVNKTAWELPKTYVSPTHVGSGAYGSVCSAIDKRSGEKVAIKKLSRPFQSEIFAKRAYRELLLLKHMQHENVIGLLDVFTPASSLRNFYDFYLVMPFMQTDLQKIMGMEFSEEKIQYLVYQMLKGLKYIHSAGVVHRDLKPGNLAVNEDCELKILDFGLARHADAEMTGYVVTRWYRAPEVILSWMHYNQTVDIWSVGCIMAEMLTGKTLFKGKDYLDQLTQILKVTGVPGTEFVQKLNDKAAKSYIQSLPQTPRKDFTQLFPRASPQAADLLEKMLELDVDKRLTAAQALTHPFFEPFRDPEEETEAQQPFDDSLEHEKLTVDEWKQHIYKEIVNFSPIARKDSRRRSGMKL
Excerpt: as §1

S6K1 = S6K1 (Homo sapiens, UniProt P23443); assay: Kinase profiling S6K1; assay type: biochemical; conditions: 100 micromolar inhibitor concentration, 100 is no change
Chain of S6K1 (P23443 whole entry, species assumed): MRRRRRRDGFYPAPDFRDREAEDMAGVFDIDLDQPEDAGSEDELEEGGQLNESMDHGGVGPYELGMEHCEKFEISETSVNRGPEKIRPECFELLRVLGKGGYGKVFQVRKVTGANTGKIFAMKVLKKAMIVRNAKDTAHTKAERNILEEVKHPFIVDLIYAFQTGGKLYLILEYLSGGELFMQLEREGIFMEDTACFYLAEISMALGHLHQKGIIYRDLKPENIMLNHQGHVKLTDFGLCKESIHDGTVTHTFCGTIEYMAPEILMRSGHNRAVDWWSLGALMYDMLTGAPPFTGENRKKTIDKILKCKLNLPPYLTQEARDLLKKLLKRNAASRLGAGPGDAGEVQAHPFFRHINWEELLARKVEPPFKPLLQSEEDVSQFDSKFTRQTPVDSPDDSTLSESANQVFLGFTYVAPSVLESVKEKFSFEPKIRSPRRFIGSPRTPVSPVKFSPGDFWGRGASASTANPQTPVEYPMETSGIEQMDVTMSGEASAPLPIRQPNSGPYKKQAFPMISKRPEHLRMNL
Excerpt: as §1

PLK1 = PLK1 (Homo sapiens, UniProt P53350); assay: Kinase profiling PLK1; assay type: biochemical; conditions: 100 micromolar inhibitor concentration, 100 is no change
Excerpt: as §1

## O=C(Nc1nc2cc(O)ccc2s1)c1cccnc1 [Compound 03-33]
TrkA
  residual kinase activity, TrkA: 51
PIM1
  residual kinase activity, PIM1: 25
NEK6
  residual kinase activity, NEK6: 107
JNK2
  residual kinase activity, JNK2: 92
HER4
  residual kinase activity, HER4: 48
CAMK1
  residual kinase activity, CAMK1: 104
TAK1
  residual kinase activity, TAK1: 73
AMPK (hum)
  residual kinase activity, AMPK (hum): 87
PDK1
  residual kinase activity, PDK1: 100
HIPK2
  residual kinase activity, HIPK2: 52
JAK2
  residual kinase activity, JAK2: 70
JNK1
  residual kinase activity, JNK1: 111
MLK3
  residual kinase activity, MLK3: 48
SRPK1
  residual kinase activity, SRPK1: 58
PKCγ
  residual kinase activity, PKCγ: 103
PKBa
  residual kinase activity, PKBa: 100
MKK6
  residual kinase activity, MKK6: 122
MSK1
  residual kinase activity, MSK1: 92
ERK2
  residual kinase activity, ERK2: 107
p38d MAPK
  residual kinase activity, p38d MAPK: 103
S6K1
  residual kinase activity, S6K1: 75
PLK1
  residual kinase activity, PLK1: 80

## O=C(Nc1nc2ccc(O)cc2s1)c1ccccc1 [Compound 03-60]
TrkA
  residual kinase activity, TrkA: 23
PIM1
  residual kinase activity, PIM1: 35
NEK6
  residual kinase activity, NEK6: 97
JNK2
  residual kinase activity, JNK2: 107
HER4
  residual kinase activity, HER4: 16
CAMK1
  residual kinase activity, CAMK1: 22
TAK1
  residual kinase activity, TAK1: 9
AMPK (hum)
  residual kinase activity, AMPK (hum): 27
PDK1
  residual kinase activity, PDK1: 98
HIPK2
  residual kinase activity, HIPK2: 8
JAK2
  residual kinase activity, JAK2: 36
JNK1
  residual kinase activity, JNK1: 88
MLK3
  residual kinase activity, MLK3: 5
SRPK1
  residual kinase activity, SRPK1: 3
PKCγ
  residual kinase activity, PKCγ: 83
PKBa
  residual kinase activity, PKBa: 79
MKK6
  residual kinase activity, MKK6: 109
MSK1
  residual kinase activity, MSK1: 31
ERK2
  residual kinase activity, ERK2: 82
p38d MAPK
  residual kinase activity, p38d MAPK: 75
S6K1
  residual kinase activity, S6K1: 11
PLK1
  residual kinase activity, PLK1: 74

## CC(=O)Nc1nc2cc(C(F)(F)F)ccc2s1 [Compound 03-73]
TrkA; read-out: residual kinase activity, TrkA
  remaining activity at 100 µM: 74%
PIM1; read-out: residual kinase activity, PIM1
  remaining activity at 100 µM: 10%
NEK6; read-out: residual kinase activity, NEK6
  remaining activity at 100 µM: 119%
JNK2; read-out: residual kinase activity, JNK2
  remaining activity at 100 µM: 111%
HER4; read-out: residual kinase activity, HER4
  remaining activity at 100 µM: 110%
CAMK1; read-out: residual kinase activity, CAMK1
  remaining activity at 100 µM: 89%
TAK1; read-out: residual kinase activity, TAK1
  remaining activity at 100 µM: 45%
AMPK (hum)
  residual kinase activity, AMPK (hum): 62
PDK1; read-out: residual kinase activity, PDK1
  remaining activity at 100 µM: 105%
HIPK2; read-out: residual kinase activity, HIPK2
  remaining activity at 100 µM: 51%
JAK2; read-out: residual kinase activity, JAK2
  remaining activity at 100 µM: 96%
JNK1; read-out: residual kinase activity, JNK1
  remaining activity at 100 µM: 120%
MLK3; read-out: residual kinase activity, MLK3
  remaining activity at 100 µM: 57%
SRPK1; read-out: residual kinase activity, SRPK1
  remaining activity at 100 µM: 72%
PKCγ; read-out: residual kinase activity, PKCγ
  remaining activity at 100 µM: 106%
PKBa; read-out: residual kinase activity, PKBa
  remaining activity at 100 µM: 106%
MKK6; read-out: residual kinase activity, MKK6
  remaining activity at 100 µM: 120%
MSK1; read-out: residual kinase activity, MSK1
  remaining activity at 100 µM: 91%
ERK2; read-out: residual kinase activity, ERK2
  remaining activity at 100 µM: 108%
p38d MAPK; read-out: residual kinase activity, p38d MAPK
  remaining activity at 100 µM: 52%
S6K1; read-out: residual kinase activity, S6K1
  remaining activity at 100 µM: 77%
PLK1; read-out: residual kinase activity, PLK1
  remaining activity at 100 µM: 91%
